Experimental data from paper PMC5431889, “Stapled BIG3 helical peptide ERAP potentiates anti-tumour activity for breast cancer therapeutics” (Scientific Reports, 2017).
Values belong to the molecule of their own block, whether it stands above or below them. Where a SMILES comes first, the peptide text is derived from it.

What was measured:
TAM-R MCF-7 cells = test: MTT assay, tamoxifen-resistant (TAM-R) MCF-7 cell growth; type: cell-based, human; settings: 10 nM E2 and 1 μM tamoxifen, single treatment at 0 h, up to 96 h; three independent experiments
[1] = system: KPL-3C orthotropic breast cancer xenografts; test: In vivo tumour growth inhibition, KPL-3C orthotopic xenografts; parameters: species or system mice; settings: intraperitoneal, E2 6 μg per day, n = 5
Procedure: KPL-3C cell suspensions (1 × 10^7 cells per mouse) were mixed with an equal volume of Matrigel (Corning) and injected (200 μL total) into the mammary fat pads of 6-week-old female BALB/c nude mice (Charles River Laboratories). The mice were housed in a pathogen-free isolation facility with a 12 h light/dark cycle and were fed rodent chow and water ad libitum. The tumours developed over a period of a few days, reaching sizes of approximately 100 mm^3 [calculated as 1/2 × (width × length^2)], upon injection of 6 μg per day of E2 solution to the neck skin. For intraperitoneal administration, the mice were randomized into 10 treatment groups (five animals per group): (1) no treatment; (2) 6 μg per day E2; (3) E2 + 1.4 mg kg^−1 day^−1 ERAP daily; (4) E2 + 1.4 mg kg^−1 day^−1 ERAP every 4 days; (5) E2 + 14 mg kg^−1 day^−1 ERAP daily; (6) E2 + 14 mg kg^−1 day^−1 ERAP every 4 days; (7) E2 + 1.4 mg kg^−1 day^−1 stERAP-6 daily; (8) E2 + 1.4 mg kg^−1 day^−1 stERAP-6 every 4 days; (9) E2 + 14 mg kg^−1 day^−1 stERAP-6 daily; and 10() E2 + 14 mg kg^−1 day^−1 stERAP-6 every 4 days. For intravenous administration, the mice were randomized into 10 treatment groups (five animals per group): (1) no treatment; (2) 6 μg per day E2; (3) E2 + 0.1 mg kg^−1 day^−1 stERAP-6 daily; (4) E2 + 1 mg kg^−1 day^−1 stERAP-6 daily; (5) E2 + 10 mg kg^−1 day^−1 stERAP-6 daily; (6) E2 + 0.1 mg kg^−1 day^−1 stERAP-6 weekly; (7) E2 + 1 mg kg^−1 day^−1 stERAP-6 weekly; (8) E2 + 10 mg kg^−1 day^−1 stERAP-6 weekly; (9) E2 + 1 mg kg^−1 day^−1 alanine-mutant stERAP-6 daily; and (10) E2 + 10 mg kg^−1 day^−1 alanine-mutant stERAP-6 daily. E2 was delivered via the application of a solution to the neck skin as previously noted.
The tumour volume was measured with calipers, after which time the mice were sacrificed and tumours excised. TGI was calculated according to the formula: [1 − (T − T0)/(C − C0)] × 100, where T and T0 are the mean tumour volumes at day 28 or 35 and day 1, respectively, for the experimental group, and C and C0 are those for the E2-treated group. The organs (heart, lung, liver, kidney, pancreas, and brain) were also immediately removed. A portion of each tissue was fixed in 10% neutral formalin for histological examination, while the remaining tissue sample was frozen and preserved at −80 °C for subsequent western blot analysis. All the experiments were performed in accordance with the guidelines of the animal care and use facility at Tokushima University.

MCF-7 cells [2] = settings: E2-dependent breast cancer cell growth; cited from earlier work
Procedure: We previously developed a dominant-negative peptide, ER α activity-regulator synthetic peptide (ERAP), which specifically disrupts the BIG3-PHB2 interaction and inhibits multiple ERα-signalling pathways driving breast cancer cell growth by reactivating tumour-suppressive activity of PHB2[10]. […] However, its inhibitory effect was only maintained for 24 h, most likely due to its high susceptibility to proteolytic degradation.

[3] = system: BIG3-PHB2 complex and ERα signalling in tumours; test: Co-immunoprecipitation, RT-PCR and immunoblot analysis of excised KPL-3C tumours; type: in vivo, mice
Procedure: Immunoblot analyses were performed as described previously. After SDS-PAGE, the membranes were blocked with 4% BlockAce solution (Dainippon Pharmaceutical) for 3 h and then incubated with antibodies against the following proteins: BIG3 (1:1,000)[10]; PHB2 (1:1,000, Abcam); Akt (1:1,000), phospho-Akt (S473) (587F11, 1:1,000); p44/42 MAPK (1:1,000), phospho-p44/42 MAPK (T202/Y204) (1:1,000); mTOR (1:1,000); phospho-mTOR (S2448) (1:1,000); S6K (1:1,000); phopho-S6K (T389) (1:1,000); α/β-tubulin (1:1,000) (Cell Signalling Technology); and LMNB1 (1:100, Sigma). After incubation with an HRP-conjugated secondary antibody (anti-mouse IgG-HRP, 1:5,000; anti-rat IgG-HRP; 1:5,000; or anti-rabbit IgG-HRP, 1:1,000; Santa Cruz Biotechnology) for 1 h, the blots were developed with an enhanced chemiluminescence (ECL) system (GE Healthcare) and scanned using an Image Reader LAS-3000 mini (Fujifilm). All the experiments were performed in triplicate at a minimum. Full-length images of immunoblots are shown in Supplementary Fig. S5. […]
The expression of the ERα target genes (TFF1 and CCND1) was evaluated by real-time RT-PCR as described previously. Each sample was normalized to the β 2-MG mRNA content, and the results were expressed as the fold increase over untreated cells (set at 1.0). […]
The tumour volume was measured with calipers, after which time the mice were sacrificed and tumours excised. […]

MCF-7 cells [4] = type: cell-based, human; settings: 96 h
Description: After […] ERAP). Microarray analysis. […]

[5] = Circular dichroism, α-helical content; type: physicochemical; settings: CD 185-265 nm, 25 °C, 50 μg mL−1 in 10 mM sodium phosphate buffer pH 7.0
Procedure: CD spectrum in the range of 185 to 265 nm was recorded at 25 °C in a 2 mm-path quartz cuvette. Protein concentration was 50 μg mL^−1 in 10 mM sodium phosphate buffer (pH 7.0). Molar ellipticity [θ] was calculated.

MCF-7 cells [6] = test: Cell cycle assay by flow cytometry (propidium iodide); type: cell-based, human; settings: 10 nM E2, 10 μM stERAP-6, 1 μM tamoxifen
Procedure: Cells were fixed in cold 70% ethanol, incubated with 20 µg mL^−1 propidium iodide (Sigma) and 1 mg mL^−1 ribonuclease A (Sigma), and analysed by flow cytometry using a FACSCalibur with CellQuest software (BD).

[7] = target: T1, His-tagged recombinant PHB2 (UniProt Q99623 1-299); test: SPR; Biacore 3000; recombinant PHB2 bound to a CM5 sensor chip, peptides as analytes at the indicated concentrations; BIAevaluation software; settings: both partners purified
T1 construct: PHB2 (prohibitin 2), recombinant, His-tagged; also called His-PHB2; source: recombinant

prohibitin 2 = prohibitin 2 (human (endogenous in MCF-7 and KPL-3C), UniProt Q99623 1-299); test: cell-based or functional assay
Chain of prohibitin 2 (Q99623 whole entry): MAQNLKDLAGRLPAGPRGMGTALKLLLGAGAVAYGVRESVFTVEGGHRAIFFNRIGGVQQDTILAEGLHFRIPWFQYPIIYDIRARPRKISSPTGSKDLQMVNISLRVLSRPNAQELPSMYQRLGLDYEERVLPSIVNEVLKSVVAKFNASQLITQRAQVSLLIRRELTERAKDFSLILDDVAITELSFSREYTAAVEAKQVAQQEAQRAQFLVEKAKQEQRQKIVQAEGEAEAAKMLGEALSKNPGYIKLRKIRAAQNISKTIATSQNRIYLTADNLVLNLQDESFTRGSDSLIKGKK

T1 sequence (Q99623 whole entry): as above

IC50 (MCF-7 cells [4]): 7.97 µM
α-helical content [5]: 21.4%
Molecule: CSCC[C@H](NC(=O)[C@H](CCC(N)=O)NC(=O)CNC(=O)CNC(=O)CNC(=O)[C@H](CCCNC(=N)N)NC(=O)[C@H](CCCNC(=N)N)NC(=O)[C@H](CCCNC(=N)N)NC(=O)[C@H](CCCNC(=N)N)NC(=O)[C@H](CCCNC(=N)N)NC(=O)[C@H](CCCNC(=N)N)NC(=O)[C@H](CCCNC(=N)N)NC(=O)[C@H](CCCNC(=N)N)NC(=O)[C@H](CCCNC(=N)N)NC(=O)[C@H](CCCNC(=N)N)NC(=O)[C@@H](N)CCCNC(=N)N)C(=O)N[C@@H](CC(C)C)C(=O)N[C@@H](CO)C(=O)N[C@@H](CC(=O)O)C(=O)N[C@@H](CC(C)C)C(=O)N[C@H](C(=O)N[C@@H](CC(C)C)C(=O)N[C@@H](CCC(N)=O)C(=O)N[C@@H](CC(C)C)C(=O)N[C@@H](CCCNC(=N)N)C(=O)N[C@@H](CCC(N)=O)C(=O)N[C@@H](CCCNC(=N)N)C(=O)O)[C@@H](C)O [ERAP] (H-RRRRRRRRRRRGGGQMLSDLTLQLRQR-OH; N-terminus and C-terminus assumed)
inhibition of growth of TAM-R MCF-7 cells (TAM-R MCF-7 cells): reduced after 24 h treatment
TGI on day 28 ([1]; 1.4 mg kg−1 every 4 days): 36.9%
TGI on day 28 ([1]; 1.4 mg kg−1 once a day for 28 days): 94.2%
TGI on day 28 ([1]; 14 mg kg−1 every 4 days): 40.3%
TGI on day 28 ([1]; 14 mg kg−1 once a day for 28 days): 94.5%
duration of inhibitory effect (MCF-7 cells [2]): 24 h
E2-induced expression of TFF1 and CCND1 and phosphorylation levels of Akt and MAPK in tumours ([3]; intraperitoneal treatment every 4 days for 28 days): did not
inhibition of endogenous BIG3-PHB2 complex formation in tumours ([3]; intraperitoneal treatment every 4 days, co-immunoprecipitation): but not with unstapled original ERAP

Molecule: CC/C(=C(\c1ccccc1)c1ccc(OCCN(C)C)cc1)c1ccccc1 [tamoxifen]
apoptotic (sub-G1) cell population (MCF-7 cells [6]): 7.44%

Kd [7]: 12.8 µM
IC50 of E2-dependent MCF-7 cell growth at 96 h after a single treatment (MTT); the peptide blocks BIG3-PHB2 (prohibitin 2): 7.97 µM
B1: ERα activity-regulator synthetic peptide (native ERAP; 11R-GGG-QMLSDLTLQLRQR) (peptide)
peptide: RRRRRRRRRRRGGGQMLSDLTLQLRQR
notes: membrane-permeable polyarginine (11R) and GGG linker, printed as 11R-GGG; also called unstapled original ERAP; dominant-negative peptide; source: synthetic peptide
